One data set has as its system DENV-1 replicon. Put plainly: Luciferase reporter replicon-based screening, DENV-1. The data set is classed as cell-based, DENV-1 (strain WestPac). As to conditions: Dengue virus, DENV1, Huh-7, 48 h, read-out: EC50 DENV-1. The procedure:
(§1) Luciferase Reporter Replicon-Based Screening. Huh7 cells containing a luciferase reporter replicon of DENV-1 (strain WestPac), DENV-2 (New Guinea C strain, NGC), DENV-3 (strain D3MY05-34640) and DENV-4 (strain D4MY01-22713) were used in this study. The replicon cells containing the Renilla luciferase and neomycin-resistance genes were generated using a similar strategy as described previously.^55 Briefly, Huh7 DENV-1 to -4 replicon cells were seeded at a density of 10k per well in a 96-well microplate. After incubation at 37° C. with 5% CO2 overnight, the cells were treated with 2-fold serial dilutions of compounds. Experiments were performed in duplicates. After 48 h of incubation, luciferase activities were measured using the EnduRen live-cell substrate (Promega) by following the manufacturer’s instructions. The dose-dependent curve was plotted and EC50 values were calculated using four parameter logistic regression in GraphPad software Prism 8.0.

The test system of another data set is DENV-3 replicon. Put plainly: Luciferase reporter replicon-based screening, DENV-3. The data set is classed as cell-based, DENV-3 (strain D3MY05-34640). Here is the method:
as §1
For orientation: Reporter assays use an easily measured gene product as a stand-in for the process of interest.

Data set [1] is described as follows: Cytotoxicity assay (CellTiter-Glo). The data set is classed as cell-based. The conditions noted are these: human, Huh7 cells stably expressing DENV-2 replicon. Here is the method:
Cytotoxicity Assay. Huh7 cells or Huh7 replicon cells were seeded in a 96-well plate. After incubation at 37° C. with 5% CO2 overnight, the cells were treated with 2-fold serial dilutions of compounds. Experiments were performed in duplicates. After 48 h of incubation, cell viability was measured by adding the CellTiter-Glo reagent (Promega) to each well. The cell viability in 0.45% DMSO-treatment groups was treated at 100%. The cell viability in compound-treated wells was normalized to that of DMSO-treated wells. CC50 values were calculated using four parameter logistic regression in GraphPad software Prism 8.0.
In general terms: ATP-based viability assays read luminescence as a measure of living cells.

In a further data set the test system is DENV-4 replicon. The data set is described as follows: Luciferase reporter replicon-based screening, DENV-4. The data set is classed as cell-based, DENV-4 (strain D4MY01-22713). The conditions noted are these: Dengue virus, DENV4, Huh-7, 48 h, read-out: EC50 DENV-4. Here is the method:
as §1

The next data set has as its system DENV-2 replicon. The data set is described as follows: Luciferase reporter replicon-based screening, DENV-2. In kind it is cell-based, DENV-2 (New Guinea C strain, NGC). The procedure:
as §1

Setting [2] is: Dengue virus, DENV3, Huh-7, 48 h, read-out: EC50 DENV-3, Huh7 cells stably expressing DENV-3 replicon, 48 h.
The mark [3] stands for this setting: Dengue virus, DENV2, Huh-7, 48 h, read-out: EC50 DENV-2, Huh7 cells stably expressing DENV-2 replicon, 48 h.

Each structure is given as a SMILES string. Where two headings read alike, the source gives them in different places.

On to `C[C@@H](c1ccc(Cl)cc1)n1nnc2c1NC(=O)C[C@]21C(=O)N(CCN(C)C)c2ccc(Cl)cc21` [Compound 57, (R)-5'-Chloro-3-((S)-1-(4-chlorophenyl)ethyl)-1'-(2-(dimethylamino)ethyl)-4,6-dihydrospiro[[1,2,3]triazolo[4,5-b]pyridine-7,3'-indoline]-2',5(3H)-dione], for which the EC50 (in general, the concentration at which the effect is half-maximal) in the data set with DENV-1 replicon is above 5000 nM; with DENV-3 replicon (setting [2]) it was 2 nM; with DENV-4 replicon, above 5000 nM; in the data set on DENV-2 replicon (setting [3]) it was 25 nM. In data set [1], the half-maximal cytotoxic concentration (CC50) (commonly the concentration giving 50% cytotoxicity) at 48 h is above 10000 nM.

`CCCCCCCCCCN1C(=O)[C@]2(CC(=O)Nc3c2nnn3[C@@H](C)c2ccc(Cl)cc2)c2cc(Cl)ccc21` [Compound 12, (R)-5'-Chloro-3-((S)-1-(4-chlorophenyl)ethyl)-1'-decyl-4,6-dihydrospiro[[1,2,3]triazolo[4,5-b]pyridine-7,3'-indoline]-2ʹ,5(3H)-dione]: the EC50 with DENV-1 replicon is 3400 nM; in the data set with DENV-3 replicon (setting [2]), 1200 nM; with DENV-4 replicon, 7300 nM; with DENV-2 replicon (setting [3]), above 10000 nM. The half-maximal cytotoxic concentration (CC50) at 48 h in data set [1] was above 10000 nM.

In the case of `C[C@@H](c1ccc(Cl)cc1)n1nnc2c1NC(=O)C[C@]21C(=O)N(CCCCCCCCN(C)C)c2ccc(Cl)cc21` [Compound 69, (R)-5'-Chloro-3-((S)-1-(4-chlorophenyl)ethyl)-1'-(8-(dimethylamino)octyl)-4,6-dihydrospiro[[1,2,3]triazolo[4,5-b]pyridine-7,3'-indoline]-2',5(3H)-dione], the EC50 was above 5000 nM with DENV-1 replicon, 42 nM in the data set with DENV-3 replicon (setting [2]), above 5000 nM in the data set with DENV-4 replicon and 490 nM in the data set on DENV-2 replicon (setting [3]). The molecule further displayed a CC50 at 48 h in data set [1] above 10000 nM.

For `COC(=O)CN1C(=O)C[C@]2(C(=O)Nc3ccc(Cl)cc32)c2nnn([C@@H](C)c3ccc(Cl)cc3)c21` [Compound 44, Methyl 2-((R)-5'-chloro-3-((S)-1-(4-chlorophenyl)ethyl)-2',5-dioxo-5,6-dihydrospiro[[1,2,3]triazolo[4,5-b]pyridine-7,3'-indolin]-4(3H)-yl)acetate], the 50% effective concentration (EC50) in the data set with DENV-1 replicon was above 10000 nM; in the data set with DENV-3 replicon (setting [2]) it was 2700 nM; in the data set on DENV-4 replicon, above 10000 nM; in the data set with DENV-2 replicon (setting [3]) it was above 10000 nM. This molecule also gave a CC50 at 48 h in data set [1] above 10000 nM.

Consider `C[C@@H](c1ccc(Cl)cc1)n1nnc2c1NC(=O)C[C@]21C(=O)N(CCCBr)c2ccc(Cl)cc21` [Compound 47, (R)-1'-(3-Bromopropyl)-5'-chloro-3-((S)-1-(4-chlorophenyl)ethyl)-4,6-dihydrospiro[[1,2,3]triazolo[4,5-b]pyridine-7,3'-indoline]-2',5(3H)-dione], for which the EC50 in the data set on DENV-1 replicon was 2400 nM; with DENV-3 replicon (setting [2]), 76 nM; in the data set with DENV-4 replicon, 3200 nM; with DENV-2 replicon (setting [3]) it was 250 nM. The molecule also displayed a 50% cytotoxic concentration (CC50) at 48 h in data set [1] above 10000 nM.

`C[C@@H](c1ccc(Cl)cc1)n1nnc2c1NC(=O)C[C@]21C(=O)N(CCF)c2ccc(Cl)cc21` [Compound 46, (R)-5'-Chloro-3-((S)-1-(4-chlorophenyl)ethyl)-1'-(2-fluoroethyl)-4,6-dihydrospiro[[1,2,3]triazolo[4,5-b]pyridine-7,3'-indoline]-2',5(3H)-dione]: the concentration giving a half-maximal response (EC50) with DENV-1 replicon was above 5000 nM; in the data set on DENV-3 replicon (setting [2]), 9 to 76 nM; in the data set with DENV-3 replicon (read-out: EC50 DENV-3, Huh7 cells stably expressing DENV-3 replicon, 48 h), 9 nM; in the data set with DENV-4 replicon, above 5000 nM; in the data set with DENV-2 replicon (setting [3]) it was 37 to 290 nM; in the data set on DENV-2 replicon (read-out: EC50 DENV-2, Huh7 cells stably expressing DENV-2 replicon, 48 h), 38 nM. This molecule showed a CC50 at 48 h in data set [1] above 10000 nM.

Regarding `C[C@@H](c1ccc(Cl)cc1)n1nnc2c1NC(=O)C[C@]21C(=O)N(Cc2ccc(Cl)c(F)c2)c2ccc(Cl)cc21` [Compound 28, (R)-5'-Chloro-1'-(4-chloro-3-fluorobenzyl)-3-((S)-1-(4-chlorophenyl)ethyl)-4,6-dihydrospiro[[1,2,3]triazolo[4,5-b]pyridine-7,3'-indoline]-2',5(3H)-dione], the EC50 in the data set with DENV-1 replicon stood at 1500 nM; in the data set with DENV-3 replicon (setting [2]), 290 nM; in the data set on DENV-4 replicon, 5100 nM; with DENV-2 replicon (setting [3]), 4000 nM. Besides, in data set [1], the CC50 at 48 h is above 10000 nM.

With `CNCCN1C(=O)[C@]2(CC(=O)Nc3c2nnn3[C@@H](C)c2ccc(Cl)cc2)c2cc(Cl)ccc21` [Compound 62, (R)-5'-chloro-3-((S)-1-(4-chlorophenyl)ethyl)-1'-(2-(methylamino)ethyl)-4,6-dihydrospiro[[1,2,3]triazolo[4,5-b]pyridine-7,3'-indoline]-2',5(3H)-dione], the 50% effective concentration (EC50) in the data set on DENV-1 replicon was above 5000 nM; in the data set with DENV-3 replicon (setting [2]) it was 22 nM; in the data set with DENV-4 replicon, above 5000 nM; in the data set on DENV-2 replicon (setting [3]), 120 nM. In data set [1], the CC50 at 48 h was above 10000 nM.

On to `C=CCN1C(=O)[C@]2(CC(=O)Nc3c2nnn3[C@@H](C)c2ccc(Cl)cc2)c2cc(Cl)ccc21` [Compound 18, (R)-1'-Allyl-5'-chloro-3-((S)-1-(4-chlorophenyl)ethyl)-4,6-dihydrospiro[[1,2,3]triazolo[4,5-b]pyridine-7,3ʹ-indoline]-2',5(3H)-dione], for which the EC50 in the data set on DENV-1 replicon is 2100 nM; in the data set on DENV-3 replicon (setting [2]) it was 5 nM; in the data set with DENV-4 replicon, above 5000 nM; in the data set with DENV-2 replicon (setting [3]) it was 38 nM. Also, the CC50 at 48 h in data set [1] was above 10000 nM.

Take `CCCN1C(=O)[C@]2(CC(=O)Nc3c2nnn3[C@@H](C)c2ccc(Cl)cc2)c2cc(Cl)ccc21` [Compound 9, (R)-5'-Chloro-3-((S)-1-(4-chlorophenyl)ethyl)-1'-propyl-4,6-dihydrospiro[[1,2,3]triazolo[4,5-b]pyridine-7,3'-indoline]-2',5(3H)-dione]: the concentration giving a half-maximal response (EC50) is 1900 nM with DENV-1 replicon, 10 nM in the data set with DENV-3 replicon (setting [2]), above 5000 nM in the data set on DENV-4 replicon and 71 nM in the data set on DENV-2 replicon (setting [3]). Further, the CC50 at 48 h in data set [1] was above 10000 nM.

For the molecule `C[C@@H](c1ccc(Cl)cc1)n1nnc2c1NC(=O)C[C@]21C(=O)N(CCCCCCCCCCN(C)C)c2ccc(Cl)cc21` [Compound 70, (R)-5'-Chloro-3-((S)-1-(4-chlorophenyl)ethyl)-1'-(10-(dimethylamino)decyl)-4,6-dihydrospiro[[1,2,3]triazolo[4,5-b]pyridine-7,3'indoline]-2',5(3H)-dione], the EC50 in the data set on DENV-1 replicon was determined as 2700 nM; with DENV-3 replicon (setting [2]), 98 nM; in the data set on DENV-4 replicon, 3500 nM; with DENV-2 replicon (setting [3]), 3500 nM. This molecule also had a 50% cytotoxic concentration (CC50) at 48 h in data set [1] above 10000 nM.

For the molecule `C[C@@H](c1ccc(Cl)cc1)n1nnc2c1NC(=O)C[C@]21C(=O)N(CCN2CCC2)c2ccc(Cl)cc21` [Compound 61, (R)-1'-(2-(Azetidin-1-yl)ethyl)-5'-chloro-3-((S)-1-(4-chlorophenyl)ethyl)-4,6-dihydrospiro[[1,2,3]triazolo[4,5-b]pyridine-7,3'-indoline]-2',5(3H)-dione], the 50% effective concentration (EC50) in the data set with DENV-1 replicon is above 5000 nM; in the data set with DENV-3 replicon (setting [2]), 7 nM; in the data set with DENV-4 replicon it was above 5000 nM; in the data set with DENV-2 replicon (setting [3]), 67 nM. Moreover, the CC50 at 48 h in data set [1] was above 10000 nM.

For `COc1cc(CN2C(=O)[C@]3(CC(=O)Nc4c3nnn4[C@@H](C)c3ccc(Cl)cc3)c3cc(Cl)ccc32)cc(OC)c1` [Compound 30, (R)-5'-Chloro-3-((S)-1-(4-chlorophenyl)ethyl)-1'-(3,5-dimethoxybenzyl)-4,6-dihydrospiro[[1,2,3]triazolo[4,5-b]pyridine-7,3'-indoline]-2',5(3H)-dione], the EC50 in the data set with DENV-1 replicon was determined as 3400 nM; with DENV-3 replicon (setting [2]), 790 nM; with DENV-4 replicon, 7400 nM; in the data set on DENV-2 replicon (setting [3]), 3100 nM. In data set [1], the 50% cytotoxic concentration (CC50) at 48 h is above 10000 nM.

In the case of `CC(C)CN1C(=O)[C@]2(CC(=O)Nc3c2nnn3[C@@H](C)c2ccc(Cl)cc2)c2cc(Cl)ccc21` [Compound 14, (R)-5'-Chloro-3-((S)-1-(4-chlorophenyl)ethyl)-1'-isobutyl-4,6-dihydrospiro[[1,2,3]triazolo[4,5-b]pyridine-7,3'-indoline]-2',5(3H)-dione], the EC50 with DENV-1 replicon is 1300 nM; in the data set on DENV-3 replicon (setting [2]), 20 nM; in the data set with DENV-4 replicon it was above 5000 nM; with DENV-2 replicon (setting [3]) it was 150 nM. The molecule further yielded a 50% cytotoxic concentration (CC50) at 48 h in data set [1] above 10000 nM.

As to `CC(C)N1C(=O)C[C@]2(C(=O)Nc3ccc(Cl)cc32)c2nnn([C@@H](C)c3ccc(Cl)cc3)c21` [Compound 21, (R)-5'-Chloro-3-((S)-1-(4-chlorophenyl)ethyl)-4-isopropyl-4,6-dihydrospiro[[1,2,3]triazolo[4,5-b]pyridine-7,3'-indoline]-2',5(3H)-dione], the concentration giving a half-maximal response (EC50) was 2100 nM in the data set on DENV-1 replicon, 310 nM in the data set with DENV-3 replicon (setting [2]), 4400 nM with DENV-4 replicon and 860 nM in the data set on DENV-2 replicon (setting [3]). Besides, the CC50 at 48 h in data set [1] is above 10000 nM.

These data come from patent US20230056205A1, “SUBSTITUTED 4,6-DIHYDROSPIRO[[1,2,3]TRIAZOLO[4,5-B]PYRIDINE-7,3'-INDOLINE]-2',5(3H)-DIONE ANALOGUES” (The Board of Regents of The University of Texas System, priority 2019, published 2023).
